Source: PubChem BioAssay (NCI)
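Briefly, cells in 96-well plates were exposed to five compound concentrations for 48 h, and endpoints were estimated by linear interpolation. TGI: total growth inhibition.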

How the values were obtained:
Assay in all cases: NCI-60 cell line screen, 48 h
786-0 renal = system: 786-0 renal
A498 renal = system: A498 renal
A549 NSCLC = system: A549 NSCLC
ACHN renal = system: ACHN renal
CAKI-1 renal = system: CAKI-1 renal
CCRF-CEM leukemia = system: CCRF-CEM leukemia
COLO 205 colon = system: COLO 205 colon
DU-145 prostate = system: DU-145 prostate
EKVX NSCLC = system: EKVX NSCLC
HCC-2998 colon = system: HCC-2998 colon
HCT-116 colon = system: HCT-116 colon
HCT-15 colon = system: HCT-15 colon
HL-60(TB) leukemia = system: HL-60(TB) leukemia
HOP-62 NSCLC = system: HOP-62 NSCLC
HOP-92 NSCLC = system: HOP-92 NSCLC
HS 578T breast = system: HS 578T breast
IGROV1 ovarian = system: IGROV1 ovarian
K-562 leukemia = system: K-562 leukemia
KM12 colon = system: KM12 colon
LOX IMVI melanoma = system: LOX IMVI melanoma
M14 melanoma = system: M14 melanoma
MALME-3M melanoma = system: MALME-3M melanoma
MCF7 breast = system: MCF7 breast
MDA-MB-231 breast = system: MDA-MB-231 breast
MDA-MB-435 = system: MDA-MB-435
MDA-N = system: MDA-N
MOLT-4 leukemia = system: MOLT-4 leukemia
NCI-H23 lung = system: NCI-H23 lung
NCI-H460 lung = system: NCI-H460 lung
NCI-H522 lung = system: NCI-H522 lung
NCI/ADR-RES ovarian = system: NCI/ADR-RES ovarian
OVCAR-3 ovarian = system: OVCAR-3 ovarian
OVCAR-5 ovarian = system: OVCAR-5 ovarian
OVCAR-8 ovarian = system: OVCAR-8 ovarian
PC-3 prostate = system: PC-3 prostate
RPMI-8226 leukemia = system: RPMI-8226 leukemia
RXF 393 renal = system: RXF 393 renal
SF-268 CNS = system: SF-268 CNS
SF-295 CNS = system: SF-295 CNS
SF-539 CNS = system: SF-539 CNS
SK-MEL-2 melanoma = system: SK-MEL-2 melanoma
SK-MEL-28 melanoma = system: SK-MEL-28 melanoma
SK-MEL-5 melanoma = system: SK-MEL-5 melanoma
SK-OV-3 ovarian = system: SK-OV-3 ovarian
SN12C renal = system: SN12C renal
SNB-19 CNS = system: SNB-19 CNS
SR leukemia = system: SR leukemia
SW-620 colon = system: SW-620 colon
T-47D breast = system: T-47D breast
TK-10 renal = system: TK-10 renal
U251 CNS = system: U251 CNS
UACC-62 melanoma = system: UACC-62 melanoma
UO-31 renal = system: UO-31 renal
BT-549 breast = system: BT-549 breast
HT29 colon = system: HT29 colon
NCI-H226 lung = system: NCI-H226 lung
OVCAR-4 ovarian = system: OVCAR-4 ovarian
SNB-75 CNS = system: SNB-75 CNS
UACC-257 melanoma = system: UACC-257 melanoma

Compound: O=C(O)c1cccc(NC(C(=O)c2ccccc2)c2ccccc2)c1 (stereo not given)
- TGI (786-0 renal): > 100 µM
- TGI (A498 renal): > 100 µM
- TGI (A549 NSCLC): > 100 µM
- TGI (ACHN renal): > 100 µM
- TGI (CAKI-1 renal): > 100 µM
- TGI (CCRF-CEM leukemia): > 100 µM
- TGI (COLO 205 colon): > 100 µM
- TGI (DU-145 prostate): > 100 µM
- TGI (EKVX NSCLC): > 100 µM
- TGI (HCC-2998 colon): > 100 µM
- TGI (HCT-116 colon): > 100 µM
- TGI (HCT-15 colon): > 100 µM
- TGI (HL-60(TB) leukemia): > 100 µM
- TGI (HOP-62 NSCLC): > 100 µM
- TGI (HOP-92 NSCLC): > 100 µM
- TGI (HS 578T breast): 80.6 µM
- TGI (IGROV1 ovarian): > 100 µM
- TGI (K-562 leukemia): > 100 µM
- TGI (KM12 colon): > 100 µM
- TGI (LOX IMVI melanoma): > 100 µM
- TGI (M14 melanoma): > 100 µM
- TGI (MALME-3M melanoma): > 100 µM
- TGI (MCF7 breast): > 100 µM
- TGI (MDA-MB-231 breast): > 100 µM
- TGI (MDA-MB-435): > 100 µM
- TGI (MDA-N): > 100 µM
- TGI (MOLT-4 leukemia): > 100 µM
- TGI (NCI-H23 lung): > 100 µM
- TGI (NCI-H460 lung): > 100 µM
- TGI (NCI-H522 lung): > 100 µM
- TGI (NCI/ADR-RES ovarian): > 100 µM
- TGI (OVCAR-3 ovarian): > 100 µM
- TGI (OVCAR-5 ovarian): > 100 µM
- TGI (OVCAR-8 ovarian): > 100 µM
- TGI (PC-3 prostate): > 100 µM
- TGI (RPMI-8226 leukemia): > 100 µM
- TGI (RXF 393 renal): > 100 µM
- TGI (SF-268 CNS): > 100 µM
- TGI (SF-295 CNS): > 100 µM
- TGI (SF-539 CNS): > 100 µM
- TGI (SK-MEL-2 melanoma): > 100 µM
- TGI (SK-MEL-28 melanoma): > 100 µM
- TGI (SK-MEL-5 melanoma): > 100 µM
- TGI (SK-OV-3 ovarian): > 100 µM
- TGI (SN12C renal): > 100 µM
- TGI (SNB-19 CNS): > 100 µM
- TGI (SR leukemia): > 100 µM
- TGI (SW-620 colon): > 100 µM
- TGI (T-47D breast): > 100 µM
- TGI (TK-10 renal): > 100 µM
- TGI (U251 CNS): > 100 µM
- TGI (UACC-62 melanoma): > 100 µM
- TGI (UO-31 renal): > 100 µM

Compound: CC(C)(C)OC(=O)c1ccc(NCC2=C(Br)C(=O)C=CC2=O)cc1
- TGI (786-0 renal): 37.5 µM
- TGI (A549 NSCLC): > 100 µM
- TGI (ACHN renal): 33.6 µM
- TGI (BT-549 breast): 26.5 µM
- TGI (CAKI-1 renal): 26.8 µM
- TGI (CCRF-CEM leukemia): > 24.9 µM
- TGI (COLO 205 colon): 33.6 µM
- TGI (DU-145 prostate): > 94.3 µM
- TGI (EKVX NSCLC): 53.9 µM
- TGI (HCC-2998 colon): 48 µM
- TGI (HCT-116 colon): 35.2 µM
- TGI (HCT-15 colon): 32 µM
- TGI (HOP-62 NSCLC): > 100 µM
- TGI (HOP-92 NSCLC): 28.4 µM
- TGI (HS 578T breast): 67.3 µM
- TGI (HT29 colon): 33.9 µM
- TGI (IGROV1 ovarian): > 66.9 µM
- TGI (K-562 leukemia): > 58 µM
- TGI (KM12 colon): > 100 µM
- TGI (LOX IMVI melanoma): 31.4 µM
- TGI (M14 melanoma): 85.4 µM
- TGI (MALME-3M melanoma): 30.6 µM
- TGI (MCF7 breast): 48.4 µM
- TGI (MDA-MB-231 breast): 47 µM
- TGI (MDA-MB-435): 41.3 µM
- TGI (MDA-N): 48.1 µM
- TGI (MOLT-4 leukemia): 45.7 µM
- TGI (NCI-H226 lung): > 90.1 µM
- TGI (NCI-H23 lung): 50.6 µM
- TGI (NCI-H460 lung): > 83.6 µM
- TGI (NCI-H522 lung): 13 µM
- TGI (NCI/ADR-RES ovarian): 62.9 µM
- TGI (OVCAR-3 ovarian): 27.7 µM
- TGI (OVCAR-4 ovarian): 33 µM
- TGI (OVCAR-5 ovarian): 56.1 µM
- TGI (OVCAR-8 ovarian): 39.8 µM
- TGI (PC-3 prostate): > 100 µM
- TGI (RPMI-8226 leukemia): > 100 µM
- TGI (RXF 393 renal): 37.5 µM
- TGI (SF-268 CNS): > 67.8 µM
- TGI (SF-295 CNS): > 100 µM
- TGI (SF-539 CNS): 52.8 µM
- TGI (SK-MEL-2 melanoma): > 71.1 µM
- TGI (SK-MEL-28 melanoma): 41.2 µM
- TGI (SK-MEL-5 melanoma): 41.6 µM
- TGI (SK-OV-3 ovarian): > 100 µM
- TGI (SN12C renal): 44 µM
- TGI (SNB-19 CNS): > 100 µM
- TGI (SNB-75 CNS): > 83.3 µM
- TGI (SR leukemia): 79.7 µM
- TGI (SW-620 colon): 34.9 µM
- TGI (T-47D breast): 41.4 µM
- TGI (TK-10 renal): 48.2 µM
- TGI (U251 CNS): > 66.6 µM
- TGI (UACC-257 melanoma): 61.3 µM
- TGI (UACC-62 melanoma): 36.1 µM
- TGI (UO-31 renal): 28.6 µM
